From publication PMC10041525, “New Dual Inhibitors of Bacterial Topoisomerases with Broad-Spectrum Antibacterial Activity and In Vivo Efficacy against Vancomycin-Intermediate Staphylococcus aureus” (Journal of Medicinal Chemistry, 2023)
Values after ≈ are worked out from the molar mass of the structure shown.

Experiments:
[1] = system: H. influenzae ATCC 49766; parameters: method as in earlier work; settings: QC range for H. influenzae ATCC 49766, ref CLSI; cited from earlier work
[2] = system: A. baumannii ATCC 19606; test: MIC broth microdilution (CLSI); assay type: cell-based; settings: Acinetobacter baumannii, ATCC19606; ATCC 19606 used for 7l, 8b, 14, 16b, 16c; read-out: MIC
Protocol: (§1) MICs (Tables 1 and S1–S3) were determined with a standard serial broth microdilution technique according to Clinical and Laboratory Standards Institute (CLSI) guidelines.[45] Cation-adjusted Mueller Hinton broth 2 (MHBII) was used for bacterial growth under standard laboratory conditions and for antimicrobial susceptibility tests. MHBII broth was prepared by dissolving 22 g of MHBII powder [containing beef extract (3 g), acid hydrolysate of casein (17.5 g), and starch (1.5 g); Becton Dickinson and Co.] in 1 L of water. To prepare MHBII agar, 14 g of agar (Bacto; Molar Chemicals) was added to 1 L of broth.
(§2) Bacterial strains were inoculated onto MHBII agar plates and grown overnight at 37 °C. Next, three individual colonies from each strain were inoculated into 1 mL of MHBII medium and propagated at 37 °C overnight, with agitation at 250 rpm. For Enterococcus sp., the cells were plated in brain–heart infusion [(BHI) medium] agar plates, and BHI broth was used to determine the MICs. […] The highest final DMSO concentration in the experiments was 0.64% (in the case of the 64 μg/mL concentration of the inhibitor). Following the dilutions, each well was seeded with 5 × 10^4 bacterial cells (in 100 μL final volume). Each measurement was performed in three parallel replicates, and to avoid possible edge effects in the microwell plates, the outside rows (A, H) were filled with sterile medium. Following the inoculations, the plates were covered with the lids and wrapped in polyethylene plastic bags, to minimize evaporation but to allow O2 transfer. The plates were incubated at 37 °C under continuous shaking at 150 rpm for 18 h. After incubation, the OD600 of each well was measured using a microplate reader (Synergy 2; Biotek). The MICs were defined as the antibiotic concentrations which inhibited the growth of the bacterial cultures; that is, the drug concentration where the average OD600 increment of the three technical replicates was below 1.5-fold the background OD increment.
(§3) cMIC, minimum inhibitory concentration
(§4) Bacterial strains that were used: S. aureus ATCC 29213, S. aureus (MRSA) ATCC 43300, S. aureus (VISA) ATCC 700699, E. faecalis ATCC 29212, E. faecium ATCC 700221,
(§5) E. coli ATCC 25922, P. aeruginosa ATCC 27853 (PAO1 for compounds 7l, 8b, 14), A. baumannii ATCC 17978 (ATCC 19606 for compounds 7l, 8b, 14), K. pneumoniae ATCC
(§6) Measurements were performed according to the Clinical and Laboratory Standards Institute guidelines, with three independent measurements.

[3] = system: K. pneumoniae ATCC 13883; test: MIC broth microdilution (CLSI); assay type: cell-based; settings: Klebsiella pneumoniae, ATCC13883; ATCC 13883 used for 7l, 8b, 14, 16b, 16c
Protocol: as §1, §2, §3, §4, §5, §6

[4] = system: P. aeruginosa PAO1; test: MIC broth microdilution (CLSI); assay type: cell-based; settings: Pseudomonas aeruginosa; PAO1 used for 7l, 8b, 14, 16b, 16c
Protocol: as §1, §2, §3, §4, §5, §6

[5] = biological target: A. baumannii DNA gyrase (Acinetobacter baumannii, UniProt A0ABX6CA01); test: gel-based supercoiling assay; assay type: biochemical
Protocol: In all experiments, the activity of the
enzymes was determined prior to the testing of the compound and 1 unit (U) was defined as the
amount of enzyme required to just fully supercoil or decatenate the substrate. This amount of
enzyme was initially used in determination of control inhibitor activity. These experiments were
performed in duplicate. […] The final DMSO
concentration was 1% for all assays. All measurements were performed in quadruplicates. The
condition for each reaction were as follows:
− S. aureus gyrase supercoiling assay
1 U of S. aureus gyrase was incubated with 0.5 µg of relaxed pBR322 DNA in a 30 µL reaction at
magnesium acetate, 10 mM DTT, 2 mM ATP, 500 mM potassium glutamate and 0.05 mg/mL
− S. aureus topo IV decatenation assay
1 U of S. aureus topo IV was incubated with 20 µg kDNA in a 30 µL reaction at 37 °C for 30
mM ATP, 350 mM potassium glutamate and 0.05 mg/mL albumin.
− A. baumannii gyrase supercoiling assay
1 U of A. baumannii gyrase was incubated with 0.5 µg of relaxed pBR322 DNA in a 30 µL reaction
blue), before being loaded on a 1.0% TAE gel run at 80V for 2 hours. Bands were visualised by
ethidium bromide staining for 20 minutes and destaining for 20 minutes. Gels were scanned using
documentation equipment (GeneGenius, Syngene, Cambridge, UK) and % inhibition levels were
measured by determining the relative fluorescence of the supercoiled band using gel scanning
software. […]

[6] = in vivo pharmacokinetics, IV; parameters: species or system male CD-1 mice
Protocol: The in vivo pharmacokinetic studies of 7a were performed by Selvita d.o.o. (Zagreb, Croatia) in male CD-1 mice (Charles River). The test compound was administered via intravenous (iv) bolus at a dose of 1 mg/kg (dose volume 5 mL/kg). Blood samples were collected from the tail vein 0.05, 0.25, 0.5, 1.0, 2.0, 4.0, 8.0, and 24 h after administration from three animals per time point. Each animal was sampled 2–4 times throughout the time course of collection (six animals were used totally per each route). Blood samples were centrifuged at 1560g for 10 min at 4 °C. The samples were analyzed by LC–MS/MS. Prior to analysis, the samples were prepared by protein precipitation {20 μL of plasma + 20 μL of water + 240 μL of extraction solvent [acetonitrile/methanol (2:1 v/v) with 100 ng/mL diclofenac (IS)]}, and the extracts were diluted with water (1:3 v/v).
For LC–MS/MS analysis, a Shimadzu prominence HPLC system was used (HPLC pump: LC30AD, autosampler: SIL30ACMP, column oven: CTO30A) connected to an Applied Biosystems mass spectrometer (QTRAP 5500) operating in the positive TurboIonSpray mode. For separation, a Waters Acquity UPLC BEH C18 1.7 μm, 2.1 × 50 mm (Waters, Milford, MA) column was used, with an injection volume of 1 or 2 μL and a flow rate of 0.5 mL/min. The mobile phase consisted of 0.1% formic acid in water (solvent A) and 0.1% formic acid in acetonitrile (solvent B). Gradient: 0–0.05 min, 5% B; 0.05–0.80 min, 5–85% B; 0.80–1.00, 85% B; 1.00–1.01, 85–95% B; 1.01–1.50, 95% B; 1.50–1.51, 95–5% B, 1.51–2.00, 5% B.
Pharmacokinetic analysis was performed using WinNonlin Phoenix software (Certara, version 8.3) from the mean animal plasma concentration per group, per time point, non-compartmental analysis, and the target dose.

[7] = formulation solubility study; assay type: physicochemical
Protocol: For the actual in vivo assay, a […] pH was used, and the compound was prepared in a formulation of 100 mM carbonate buffer at pH 8.4 with 20% hydroxypropyl β-cyclodextrin.
Solubility analysis was performed on an Acquity UPLC instrument (Waters, Milford, MA, USA). A Waters BEH C18 column (2.1 × 50 mm, 1.7 μm; Waters) was used at T = 40 °C, with the flow rate of 0.5 mL/min; PDA UV detection at λ = 256 nm; mobile phase A: 0.1% formic acid in ultrapure water; mobile phase B: 0.1% formic acid in acetonitrile. Gradient: 0–4 min, 5–100% B; 4–5 min, 100% B; 5–5.1 min, 100–5% B; 5.1–7 min, 5% B.

[8] = male, CD-1, mouse, plasma, IV 1 mg/kg

Sequence of A. baumannii DNA gyrase (A0ABX6CA01 1-822): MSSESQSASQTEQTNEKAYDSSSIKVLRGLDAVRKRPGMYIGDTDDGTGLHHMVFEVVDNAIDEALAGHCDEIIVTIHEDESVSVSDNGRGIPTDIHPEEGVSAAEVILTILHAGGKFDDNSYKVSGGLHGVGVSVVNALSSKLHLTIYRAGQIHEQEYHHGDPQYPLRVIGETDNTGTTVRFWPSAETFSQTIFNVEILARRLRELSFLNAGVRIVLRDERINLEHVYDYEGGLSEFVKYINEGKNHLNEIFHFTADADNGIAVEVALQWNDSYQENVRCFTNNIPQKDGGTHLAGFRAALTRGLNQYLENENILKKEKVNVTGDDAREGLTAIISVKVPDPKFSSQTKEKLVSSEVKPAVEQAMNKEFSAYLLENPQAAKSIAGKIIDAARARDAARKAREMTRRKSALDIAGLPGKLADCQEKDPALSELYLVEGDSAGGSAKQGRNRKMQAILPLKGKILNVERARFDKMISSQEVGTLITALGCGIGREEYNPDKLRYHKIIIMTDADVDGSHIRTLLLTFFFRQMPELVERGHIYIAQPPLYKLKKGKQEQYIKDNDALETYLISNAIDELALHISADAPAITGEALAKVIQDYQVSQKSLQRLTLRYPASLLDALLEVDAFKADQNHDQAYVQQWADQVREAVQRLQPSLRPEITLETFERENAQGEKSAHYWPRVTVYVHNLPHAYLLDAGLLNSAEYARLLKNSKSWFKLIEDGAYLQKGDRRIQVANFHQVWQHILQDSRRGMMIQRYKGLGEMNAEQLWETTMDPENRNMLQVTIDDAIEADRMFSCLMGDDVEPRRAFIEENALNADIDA
Sequence of A. baumannii DNA gyrase (A0ABX6CII0 1-904 partner): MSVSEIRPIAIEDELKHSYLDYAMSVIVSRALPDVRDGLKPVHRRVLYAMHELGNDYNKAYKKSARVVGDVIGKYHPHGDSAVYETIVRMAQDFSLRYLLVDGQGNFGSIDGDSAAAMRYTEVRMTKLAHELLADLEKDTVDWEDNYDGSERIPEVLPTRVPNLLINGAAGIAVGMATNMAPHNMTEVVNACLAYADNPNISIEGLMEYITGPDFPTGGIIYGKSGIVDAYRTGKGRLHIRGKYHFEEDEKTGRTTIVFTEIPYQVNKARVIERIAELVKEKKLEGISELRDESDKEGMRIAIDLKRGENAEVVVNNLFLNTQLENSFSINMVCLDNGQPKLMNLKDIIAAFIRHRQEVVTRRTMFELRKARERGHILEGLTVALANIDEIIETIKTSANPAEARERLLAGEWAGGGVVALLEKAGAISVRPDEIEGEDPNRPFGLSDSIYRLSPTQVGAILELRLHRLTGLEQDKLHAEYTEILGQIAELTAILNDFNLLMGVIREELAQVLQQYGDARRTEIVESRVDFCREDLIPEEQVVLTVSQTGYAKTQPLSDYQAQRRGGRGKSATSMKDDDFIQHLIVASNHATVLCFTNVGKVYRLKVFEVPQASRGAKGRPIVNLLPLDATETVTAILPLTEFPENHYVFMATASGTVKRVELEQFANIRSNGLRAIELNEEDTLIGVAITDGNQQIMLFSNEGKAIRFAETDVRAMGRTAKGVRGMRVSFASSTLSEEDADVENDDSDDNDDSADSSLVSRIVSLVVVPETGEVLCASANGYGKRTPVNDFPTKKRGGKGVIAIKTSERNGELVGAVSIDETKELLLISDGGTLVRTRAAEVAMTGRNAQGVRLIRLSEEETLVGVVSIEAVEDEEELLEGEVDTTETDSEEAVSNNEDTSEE

## C[C@@H](O)[C@H]1C(=O)N2C(C(=O)O)=C(SCCNC=N)C[C@H]12 [Imipenem, imipenem]
[1]
  MIC, CLSI Range: 0,25 - 1 µg/mL

## Cc1[nH]c(C(=O)Nc2nc3c(N4CCOCC4)cc(C(=O)O)cc3s2)cc1F [16b, 2-(4-Fluoro-5-methyl-1H-pyrrole-2-carboxamido)-4-morpholinobenzo[d]thiazole-6-carboxylic Acid]
[2]
  MIC: > 64 µg/mL
[3]
  MIC: > 64 µg/mL
[4]
  MIC: > 64 µg/mL

## Cc1[nH]c(C(=O)Nc2nc3c(N4CCOCC4)cc(C(=O)O)cc3s2)c(Cl)c1Cl [7a, 2-(3,4-Dichloro-5-methyl-1H-pyrrole-2-carboxamido)-4-morpholinobenzo[d]thiazole-6-carboxylic Acid]
[5]
  IC50: 2.42 ± 0.28 nM
[6]; assuming 90 mL/min/kg
  plasma clearance as % of liver blood flow: 61%
[6]; [8]
  AUC(0-inf) at 24 h: 304 ng·h/mL
  C0 at 24 h: 913 ng/mL
  clearance at 24 h: 54.8 mL/min/kg
  half-life at 24 h: 1 h
[6]; male, CD-1, mouse, plasma, IV 1 mg/kg, read-out: AUC0–24h
  AUC(0-t) at 24 h: 303 ng·h/mL
[6]; male, CD-1, mouse, plasma, IV 1 mg/kg, read-out: Vss
  Vd at 24 h: 2.3 L/kg
[7]; 100 mM carbonate buffer with 20% CD, pH 8.0, 20% CD
  solubility: 3800 µg/mL (≈ 8.35 mM)
[7]; 100 mM carbonate buffer, pH 9.0, 20% hydroxypropyl β-cyclodextrin
  solubility: 13200 µg/mL (≈ 29 mM)
